Tested on: vascular occlusion model rats
Experiment: Vascular occlusion model, Morris water maze test
Format: in vivo
Details: 1 and 10 nmol/kg subcutaneous, rat
Protocol: Physiological saline was administered as a vehicle to a control group. Then, the bilateral vertebral arteries were permanently occluded under anesthesia. On the next day, the bilateral common carotid arteries were occluded for 30 minutes under anesthesia using a suture thread. Then, the suture thread was removed, and blood flow was restarted. The date of the bilateral common carotid artery occlusion was defined as the date of the vascular occlusion model preparation, i.e., day 0. 9 days after the model preparation, the rat was caused to swim in the Morris water maze in one trial (training). The hidden platform test was conducted at intervals of 4 trials/day for 5 days from 10 days after the model preparation. On the fifth day of the hidden platform test (14 days after the model preparation), the probe test was conducted 1 hour after the final trial.
The Morris water maze test was conducted using an experimental apparatus described below. A round pool having a diameter of 150 cm, a height of 45 cm, and a water depth of 30 cm was provided. A clear colorless platform having a diameter of 12 cm was positioned approximately 1 cm below the water surface in the round pool. The water temperature of the round pool was set to 23±1° C. Indirect lighting was disposed within the room having the experimental apparatus placed therein, and visual cues (calendar, ball, cube and striped sheet) for the animals were arranged therein. In the test period, this arrangement was always constant. A video tracking system (Smart, Panlab, S.L.U.) was used in measurement.
The hidden platform test was conducted by procedures described below. […] The swimming time to arrive at the platform from the start (escape latency) was measured. […]
The probe test was conducted by procedures described below. […], the swimming time in a zone having the platform placed therein was measured. The stay rate (%) was calculated according to an expression given below using the measured swimming time. […]

## GL-2-branched CH3O-PEG (60k)-CH2-^αNH-(h.AM (1-52)) [Compound (8)]
  death rate associated with the operation for the bilateral common carotid artery occlusion: no significant difference
  escape latency in the hidden platform test as compared to the vehicle control group: shortened
  stay rate in the probe test as compared to the vehicle control group: significantly increased
